Results published in article PMC3206814, “Stereo-Selectivity of Human Serum Albumin to Enantiomeric and Isoelectronic Pollutants Dissected by Spectroscopy, Calorimetry and Bioinformatics” (PLoS ONE, 2011).

Experiments:
[1] = molecular target: T1, human serum albumin (HSA) (Homo sapiens, UniProt P02768); experiment: isothermal titration calorimetry, two-site sequential model; type: binding; details: read-out: Kb(M^-1) (converted)
T1 construct: gene ALB; commercial, essentially fatty acid free, full-length mature monomer of 585 residues, dialyzed, used without further purification
From the text: isothermal titration calorimetry, two-site sequential model on human serum albumin (HSA)

[2] = molecular target: T1, human serum albumin (HSA); experiment: UV absorption titration at […] nm, […]/dA vs […]/[S] plot; type: binding

T1 sequence (P02768 25-609): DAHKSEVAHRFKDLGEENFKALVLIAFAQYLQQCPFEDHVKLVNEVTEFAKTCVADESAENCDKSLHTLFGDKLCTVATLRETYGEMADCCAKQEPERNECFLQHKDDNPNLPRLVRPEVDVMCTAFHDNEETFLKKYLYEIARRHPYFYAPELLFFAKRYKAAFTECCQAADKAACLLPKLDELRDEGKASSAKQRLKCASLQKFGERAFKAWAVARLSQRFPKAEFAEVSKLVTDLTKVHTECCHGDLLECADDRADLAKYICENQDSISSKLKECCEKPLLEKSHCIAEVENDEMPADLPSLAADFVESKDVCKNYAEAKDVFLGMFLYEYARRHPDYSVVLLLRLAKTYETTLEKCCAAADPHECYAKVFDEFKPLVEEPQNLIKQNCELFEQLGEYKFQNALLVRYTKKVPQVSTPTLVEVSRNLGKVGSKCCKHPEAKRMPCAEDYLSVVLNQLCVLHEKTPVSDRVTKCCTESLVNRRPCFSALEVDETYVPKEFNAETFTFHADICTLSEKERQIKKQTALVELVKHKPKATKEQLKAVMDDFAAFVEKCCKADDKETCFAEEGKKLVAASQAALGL

Q: `Oc1ccc2ccccc2c1` [2N, naphthalen–2–ol] was tested. Which Kd [1] did it give?
A: 25.3 µM

Q: And the Kd [2]?
A: 66.9 µM
